{"source": "patent US11311562B2", "about": "“Methods for reducing the incidence of oxidative stress using human milk oligosaccharides, vitamin c and anti-inflammatory agents” (priority 2010, dated 2022)", "key": {"IP-10": {"tested_on": "IP-10", "assay": "IP-10 in supernatants of HMO-pretreated, RSV-infected PBMCs", "type": "cell-based, human", "settings": "for IP-10 in virus-infected variables: RSV MOI 0.1, 24 h pretreatment, both donors, FIGS. 3-6; for IP-10 in virus-infected variables / reducing inflammation caused by RSV: PBMCs; for reducing inflammation caused by RSV: pretreatment for 24 hours", "experimental": "(§1) Specifically, either 3′SL or 6′SL is added, at concentrations of 0.1 mg/mL, 0.2 mg/mL, or 0.5 mg/mL to fresh peripheral blood mononuclear cells (PBMCs) and incubated at 37° C. in 5% CO2 to pretreat the cells for approximately 24 hours. LNnT is added, at concentrations of 0.1 mg/mL, 0.2 mg/mL, or 1 mg/mL to PBMCs and incubated at 37° C. in 5% CO2 to pretreat the cells for approximately 24 hours. Lactose is included as a carbohydrate control. Matched endotoxin unit concentration controls are included to allow differentiation of ingredient effects from inherent low levels of endotoxin. Some variables are then incubated with RSV at a multiplicity of infection (MOI) of 0.1 for approximately 1 hour at 37° C. in 5% in CO2. Uninfected control variables are incubated with medium for approximately 1 hour at 37° C. in 5% CO2. After approximately one hour, fresh medium alone, or fresh medium containing the appropriate concentration of 3′SL, 6′SL, LNnT, lactose, or endotoxin is added to the appropriate tubes and the cells are incubated for 48 hours at 37° C. in 5% CO2. Supernatants are collected at 24 and 48 hours post-infection. Cytokines are measured in supernatants for each variable at 24 and 48 hours to assess the effects of HMOs on the early immune response to RSV. Cytokines are measured using custom Bio-Plex Human cytokine kits from Bio-Rad.\nIP-10 is a CXC chemokine that attracts, binds to and activates the CXCR3 receptor on natural killer cells and memory T cells. IP-10 is expressed by monocytes and a number of other cells, and is induced by interferon. A positive correlation exists between RSV clinical disease severity in children (as measured by: length of hospital stay, fever, and number of days supplemental O2 is required) and serum IP-10. Therefore, a decrease in IP-10 signals a decrease in severity of RSV disease experienced."}, "H1N1 influenza virus [1]": {"tested_on": "H1N1 influenza virus", "type": "cell-based", "settings": "for IC50 (mg HMO/mL) H1N1 Influenza: HMOs added at 1 mg/mL or 10 mg/mL, virus dose about 500-1,000 units/mL"}, "[2]": {"tested_on": "respiratory syncytial virus (RSV)", "type": "cell-based", "settings": "HMOs added at 1 mg/mL or 10 mg/mL; virus dose about 500-1,000 units/mL"}, "[3]": {"tested_on": "human parainfluenza virus (HPIV3)", "type": "cell-based", "settings": "HMOs added at 1 mg/mL or 10 mg/mL; virus dose about 500-1,000 units/mL"}, "[4]": {"tested_on": "monocyte-derived cytokines", "assay": "monocyte-derived cytokines in supernatants of HMO-pretreated PBMCs with or without RSV", "type": "cell-based, human", "experimental": "as §1"}, "interleukin 10 (IL-10)": {"tested_on": "interleukin 10 (IL-10)", "assay": "IL-10 in supernatants of HMO-pretreated PBMCs with or without RSV", "type": "cell-based, human", "settings": "PBMCs in the presence or absence of RSV; FIGS. 7-10", "experimental": "as §1"}, "H1N1 influenza virus [5]": {"tested_on": "H1N1 influenza virus", "type": "cell-based", "settings": "10 mg/mL HMO; MDCK cells; FIG. 1"}, "[6]": {"settings": "PBMCs in the presence or absence of the virus"}}, "data": [{"smiles": "CC(=O)N[C@H]1[C@H]([C@H](O)[C@H](O)CO)O[C@@](O[C@H]2[C@@H](O)[C@@H](CO)O[C@@H](O[C@H]3[C@H](O)[C@@H](O)C(O)O[C@@H]3CO)[C@@H]2O)(C(=O)O)C[C@@H]1O", "note": "(stereo partly drawn) [3′SL, 3′-sialyllactose]", "values": [{"measurement": "IP-10 in virus-infected variables", "setting": "IP-10", "result": "dampen RSV-induced IP-10"}, {"measurement": "RSV-induced IP-10, Donor B", "setting": "IP-10; RSV-infected PBMCs, Donor B, 0.1-0.5 mg/mL", "result": "not effective"}, {"measurement": "RSV-induced IP-10, Donor E", "setting": "IP-10; RSV-infected PBMCs, Donor E, 0.1-0.5 mg/mL", "result": "downregulates RSV-induced IP-10"}, {"measurement": "reducing inflammation caused by RSV", "setting": "IP-10", "result": "effective"}, {"measurement": "anti-viral activity against H1N1 influenza virus", "setting": "H1N1 influenza virus [1]; HMO at 1 mg/mL", "result": "inhibited"}, {"measurement": "IC50 (mg HMO/mL) H1N1 Influenza", "setting": "H1N1 influenza virus [1]", "result": "~5", "unit": "mg HMO/mL"}, {"measurement": "IC50 (mg HMO/mL) RSV", "setting": "[2]", "result": ">10", "unit": "mg HMO/mL"}, {"measurement": "IC50 (mg HMO/mL) HPIV3", "setting": "[3]", "result": ">10", "unit": "mg HMO/mL"}, {"measurement": "production of monocyte-derived cytokines (immunomodulatory)", "setting": "[4]; [6]", "result": "induces and/or modifies the production of monocyte-derived cytokines such as MIP-1β, Interferon-γ, IL-8, and IL-1ra"}]}, {"smiles": "CC(=O)N[C@H]1[C@H](O[C@H]2[C@@H](O)[C@@H](CO)O[C@@H](O[C@H]3[C@H](O)[C@@H](O)C(O)O[C@@H]3CO)[C@@H]2O)O[C@H](CO)[C@@H](O[C@@H]2O[C@H](CO)[C@H](O)[C@H](O)[C@H]2O)[C@@H]1O", "note": "(mixture of isomers) [LNnT, lacto-N-neotetraose]", "values": [{"measurement": "IP-10 in virus-infected variables", "setting": "IP-10", "result": "clearly downregulates IP-10"}, {"measurement": "IP-10 level compared with uninfected controls", "setting": "IP-10; RSV-infected PBMCs", "result": "reduce IP-10 to levels found in uninfected controls"}, {"measurement": "downregulation of IP-10 compared with 3′SL", "setting": "IP-10; RSV-infected PBMCs", "result": "more effective than 3′SL"}, {"measurement": "reducing inflammation caused by RSV", "setting": "IP-10", "result": "effective"}, {"measurement": "IC50 (mg HMO/mL) H1N1 Influenza", "setting": "H1N1 influenza virus [1]", "result": ">10", "unit": "mg HMO/mL"}, {"measurement": "IC50 (mg HMO/mL) RSV", "setting": "[2]", "result": ">10", "unit": "mg HMO/mL"}, {"measurement": "IL-10 concentration", "setting": "interleukin 10 (IL-10)", "result": "increases IL-10 concentration in a dose-dependent manner"}, {"measurement": "production of monocyte-derived cytokines (immunomodulatory)", "setting": "[4]; [6]", "result": "induces and/or modifies the production of monocyte-derived cytokines such as IL-10, MIP-1β, Interferon-γ, IL-8, IL-1α, IL-1β, and IL-1ra"}]}, {"smiles": "CC(=O)N[C@H]1[C@H]([C@H](O)[C@H](O)CO)O[C@@](OC[C@H]2O[C@@H](O[C@H]3[C@H](O)[C@@H](O)[C@H](O)O[C@@H]3CO)[C@H](O)[C@@H](O)[C@H]2O)(C(=O)O)C[C@@H]1O", "note": "[6′SL, 6′-sialyllactose]", "values": [{"measurement": "IP-10 in virus-infected variables", "setting": "IP-10", "result": "downregulates IP-10"}, {"measurement": "IP-10 level compared with uninfected controls", "setting": "IP-10; RSV-infected PBMCs", "result": "reduce IP-10 to levels found in uninfected controls"}, {"measurement": "downregulation of IP-10 compared with 3′SL", "setting": "IP-10; RSV-infected PBMCs", "result": "more effective than 3′SL"}, {"measurement": "reducing inflammation caused by RSV", "setting": "IP-10", "result": "effective"}, {"measurement": "IC50 (mg HMO/mL) H1N1 Influenza", "setting": "H1N1 influenza virus [1]", "result": "~10", "unit": "mg HMO/mL"}, {"measurement": "IC50 (mg HMO/mL) RSV", "setting": "[2]", "result": ">10", "unit": "mg HMO/mL"}, {"measurement": "IL-10 concentration", "setting": "interleukin 10 (IL-10)", "result": "increases interleukin 10 (IL-10) concentration in a dose-dependent manner"}, {"measurement": "inhibition of virus infectivity", "setting": "H1N1 influenza virus [5]", "result": "approximately 60%"}, {"measurement": "IC50 (mg HMO/mL) HPIV3", "setting": "[3]", "result": ">10", "unit": "mg HMO/mL"}, {"measurement": "production of monocyte-derived cytokines (immunomodulatory)", "setting": "[4]; PBMCs in the absence of the virus", "result": "induces and/or modifies the production of monocyte-derived cytokines such as IL-10, MIP-1β, Interferon-γ, IL-8, IL-1α, IL-1β, and IL-1ra"}]}]}
